In patent US20240293563A1, “GLP-1 RECEPTOR LIGAND MOIETY CONJUGATED OLIGONUCLEOTIDES AND USES THEREOF” (priority 2017, published 2024):
Square brackets hold non-standard residues; d marks the D form. Side chains are listed from the residue outwards. Ends that are not written are not given here. 5'‑hexylamino oligonucleotide ISIS 722061 = not defined here; 5'‑hexylamino oligonucleotide ION 913192 = not defined here; Aib = CC(C)(N)C(=O)O; Mpa = O=C(O)CCS

Experiments:
FoxO1 protein [1] = assay: FoxO1 protein (Western Blot) in cultured mouse primary islets of Langerhans treated with ASO; assay type: cell-based; conditions: Western Blot normalized to α-tubulin; islets treated for 96 hours; 1 μM
Protocol: Pancreatic islets were isolated by collagenase digestion from pancreas collected from euthanized 12 to 15 weeks old female B6.Cg-Lepob/J mice and maintained in tissue culture until use. 150 intact islets were placed in plastic Petri Dishes and treated with 1 μM of antisense oligonucleotides for 3 hrs every 24 hrs and harvested after approximately 24 hrs, 48 hrs or 96 hrs total treatment time respectively. After the treatment period, islets were harvested, and half of the islets were used to measure FOXO1 mRNA levels as described herein (Example 9). Half of the islets were homogenized in M-PER protein extraction reagent (Thermo Scientific) containing a protease inhibitor cocktail (Complete Mini and phosphoSTOP, Roche Diagnostics). The protein content of lysates were quantitated using BCA Assay Reagent (Pierce). […] For the anti-FoxO1 antibody, the secondary antibody was HRP-conjugated polyclonal goat anti-Rabbit P0448 (DAKO) and for the anti-α-tubulin antibody, the secondary antibody was HRP-conjugated polyclonal goat anti-mouse P0447 (DAKO). Enhanced chemiluminescence reagents (Pierce) were used for detection. […] Protein levels were quantified by measuring the intensity of the bands on the gel normalized to the intensity of α-tubulin, and expressed as percent of vehicle treated islets. FoxO1 protein levels were set to 100% in vehicle treated islets. […]

FOXO1 mRNA [2] = assay: FOXO1 mRNA in isolated islets and liver after 6 weeks repeated administration to ob/ob mice; assay type: in vivo, mouse; conditions: ob/ob mice
Protocol: Pancreatic islets were isolated by collagenase digestion from pancreas collected from exsanguinated 12 to 15 weeks old female C57BL/6Crl mice. Islets were maintained in tissue culture until use. Islet were dissociated into single cells by shaking in media containing a low extracellular calcium concentration. 10 to 20 intact or dissociated islets were plated on plastic Petri Dishes and treated with 10 μM of antisense oligonucleotides for approximately 24 hrs. After the treatment period cells were harvested, RNA isolated, adjusted to total RNA content, as measured by RIBOGREEN®. MALAT1 or FOXO1 mRNA levels measured by quantitative real-time PCR. […] All data was normalized to the mRNA level of the house keeping gene (RPLP0) in the same sample, measured using a primer probe set with forward sequence […] NO: 71), reverse sequence […] NO: 72) and probe sequence […] NO: 73). Male ob/ob mice (B6.V-Lepob/OlaHsd, Harlan) were assigned to five treatment groups receiving either vehicle, 0.1 μmol/kg ISIS 776102, 0.1 μmol/kg ION 913195, 0.03 ION 913193 or 1 μmol/kg ION 913193. All animals were treated once weekly for 6 weeks. Approximately 120 hrs after last dose all animals were sacrificed, liver samples collected and pancreatic islets isolated, as described herein (Example 9), for mRNA analysis. FOXO1 mRNA levels were quantified as described herein (Example 9) and mRNA levels expressed relative to housekeeping gene in each sample (RPLP0).

FOXO1 mRNA [3] = assay: FOXO1 mRNA in cultured mouse primary islets of Langerhans treated with ASO; assay type: cell-based; conditions: for Islet FOXO1 mRNA levels relative to control (RPLP0): percent of untreated cells, 1 μM ASO 3 hrs every 24 hrs
Protocol: Pancreatic islets were isolated by collagenase digestion from pancreas collected from exsanguinated 12 to 15 weeks old female C57BL/6Crl mice. Islets were maintained in tissue culture until use. Islet were dissociated into single cells by shaking in media containing a low extracellular calcium concentration. 10 to 20 intact or dissociated islets were plated on plastic Petri Dishes and treated with 10 μM of antisense oligonucleotides for approximately 24 hrs. After the treatment period cells were harvested, RNA isolated, adjusted to total RNA content, as measured by RIBOGREEN®. MALAT1 or FOXO1 mRNA levels measured by quantitative real-time PCR. […] All data was normalized to the mRNA level of the house keeping gene (RPLP0) in the same sample, measured using a primer probe set with forward sequence […] NO: 71), reverse sequence […] NO: 72) and probe sequence […] NO: 73). Pancreatic islets were isolated by collagenase digestion from pancreas collected from euthanized 12 to 15 weeks old female B6.Cg-Lepob/J mice and maintained in tissue culture until use. 150 intact islets were placed in plastic Petri Dishes and treated with 1 μM of antisense oligonucleotides for 3 hrs every 24 hrs and harvested after approximately 24 hrs, 48 hrs or 96 hrs total treatment time respectively. After the treatment period, islets were harvested, and half of the islets were used to measure FOXO1 mRNA levels as described herein (Example 9). Half of the islets were homogenized in M-PER protein extraction reagent (Thermo Scientific) containing a protease inhibitor cocktail (Complete Mini and phosphoSTOP, Roche Diagnostics). The protein content of lysates were quantitated using BCA Assay Reagent (Pierce). […] For the anti-FoxO1 antibody, the secondary antibody was HRP-conjugated polyclonal goat anti-Rabbit P0448 (DAKO) and for the anti-α-tubulin antibody, the secondary antibody was HRP-conjugated polyclonal goat anti-mouse P0447 (DAKO). Enhanced chemiluminescence reagents (Pierce) were used for detection.

FoxO1 protein [4] = assay: FoxO1 protein levels in islets isolated from ob/ob mice treated for 6 weeks; assay type: in vivo, mouse
Protocol: Pancreatic islets were isolated by collagenase digestion from pancreas collected from euthanized 12 to 15 weeks old female B6.Cg-Lepob/J mice and maintained in tissue culture until use. 150 intact islets were placed in plastic Petri Dishes and treated with 1 μM of antisense oligonucleotides for 3 hrs every 24 hrs and harvested after approximately 24 hrs, 48 hrs or 96 hrs total treatment time respectively. After the treatment period, islets were harvested, and half of the islets were used to measure FOXO1 mRNA levels as described herein (Example 9). Half of the islets were homogenized in M-PER protein extraction reagent (Thermo Scientific) containing a protease inhibitor cocktail (Complete Mini and phosphoSTOP, Roche Diagnostics). The protein content of lysates were quantitated using BCA Assay Reagent (Pierce). […] For the anti-FoxO1 antibody, the secondary antibody was HRP-conjugated polyclonal goat anti-Rabbit P0448 (DAKO) and for the anti-α-tubulin antibody, the secondary antibody was HRP-conjugated polyclonal goat anti-mouse P0447 (DAKO). Enhanced chemiluminescence reagents (Pierce) were used for detection. Male ob/ob mice (B6.V-Lepob/OlaHsd, Harlan) were assigned to five treatment groups receiving either vehicle, 0.1 μmol/kg ISIS 776102, 0.1 μmol/kg ION 913195, 0.03 ION 913193 or 1 μmol/kg ION 913193. All animals were treated once weekly for 6 weeks. Approximately 120 hrs after last dose all animals were sacrificed, liver samples collected and pancreatic islets isolated, as described herein (Example 9), for mRNA analysis. FOXO1 mRNA levels were quantified as described herein (Example 9) and mRNA levels expressed relative to housekeeping gene in each sample (RPLP0). Male ob/ob mice were assigned to five treatment groups as described herein (Example 17) Approximately 120 hrs after last dose all animals were sacrificed and pancreatic islets isolated for FoxO1 protein analysis as described herein (Example 10). Random samples were selected from each treatment group and loaded on each gel such that at least one sample from each treatment group was analysed on the same gels. FoxO1 protein levels were measured by quantifying the intensity and normalized against the α-tublin levels in the same sample. All samples within individual gels were expressed as percentage of the levels measured in islets of animals receiving ION 913195.

MALAT-1 = assay: Dose-dependent reduction of MALAT-1 expression in LVX-GLP1R cells; assay type: cell-based, human
Protocol: HEK cells stably expressing FLAG-tagged GLP1R were generated by infecting HEK 293 cells with FLAG-tagged GLP1R containing lentivirus produced by transfection of 293T cells with pLVX-IRES-Puro (Clontech Laboratories Inc., Mountainview, CA) harboring the FLAG-GLP1R insert. Infected cells were selected with puromycin (2 μg/ml) and then analyzed for receptor expression by western blot and immunofluorescence. Cultured GLP1R cells were plated at a density of 10,000 cells per well and treated with 0.3, 1, 3, 9, 27, 82, 247, 741, 2,222, 6,667, and 20,000 nM modified oligonucleotide for approximately 24 hours. After the treatment period, total RNA was prepared using an RNeasy mini kit (Qiagen, Valencia, CA, USA) and qRT-PCR was performed using the primer probe set RTS2739 (forward sequence: […] (SEQ ID NO: 74), reverse sequence: […] (SEQ ID NO: 75), probe sequence: […] (SEQ ID NO: 76). Briefly, ˜50 ng total RNA in 5 d water was mixed with 0.3 d primer probe sets containing forward and reverse primers (10 μM of each) and fluorescently labeled probe (3 μM), 0.3 W RT enzyme mix (Qiagen), 4.4 d RNase-free water, and 10 d of 2×PCR reaction buffer in a 20 d reaction. Reverse transcription was performed at 48° C. for 10 min, 40 cycles of PCR were conducted at 94° C. for 20 s, and 60° C. for 20 s within each cycle, using StepOne Plus RT-PCR system (Applied Biosystems, Phoenix, AZ, USA). The mRNA levels were normalized to the amount of total RNA present in each reaction as determined by Ribogreen assay (Life Technologies) and normalized to the saline control (100% expression).

MALAT1 [5] = assay: MALAT1 in situ hybridization in beta islet cells after i.v. GLP-1 ASO conjugates with various linkers; assay type: in vivo, mouse; conditions: male C57BL/6 mice; intravenous 0.6 μmol/kg/week once a week for three weeks; 72 hours after final injection
MALAT1 [6] = assay: Effect of peptide composition and attachment point on peptide-conjugated ASO activity in LVX-GLP1R cells; assay type: cell-based, human; conditions: 7 doses in a 4-fold dilution series, MALAT1 RNA
[7] = 0.03 μmol/kg once weekly for 6 weeks
[8] = 0.1 μmol/kg once weekly for 6 weeks

ION 913193 (H[Aib]EGTFTSDVSSYLEEQAAKEFIAWLVKGGPSSGAPPPSC([Mpa-5'‑hexylamino oligonucleotide ION 913192])-NH2; reading uncertain; also: Cys40 joined to the linker by a disulfide)
FoxO1 protein levels, percent of vehicle treated islets (FoxO1 protein [1]): 5% | average FOXO1 mRNA reduction in isolated islets of Langerhans (FOXO1 mRNA [2]; [7]): 42% | average FOXO1 mRNA reduction in isolated islets of Langerhans (FOXO1 mRNA [2]; [8]): 72% | reduction in FOXO1 mRNA (FOXO1 mRNA [3]; mouse islets, 1 μM ASO, summary of Table 2): more than 70% | Islet FOXO1 mRNA levels relative to control (RPLP0) (FOXO1 mRNA [3]; 24 hours): 31% | Islet FOXO1 mRNA levels relative to control (RPLP0) (FOXO1 mRNA [3]; 48 hours): 30% | Islet FOXO1 mRNA levels relative to control (RPLP0) (FOXO1 mRNA [3]; 96 hours): 25% | Foxo1 protein levels reduced relative to ION 913195 (FoxO1 protein [4]; [7]): 57% | Foxo1 protein levels reduced relative to animals treated with 0.1 μmol/kg ISIS 776102 (FoxO1 protein [4]; [7]): 64% | Foxo1 protein levels reduced relative to ION 913195 (FoxO1 protein [4]; [8]): 81% | Foxo1 protein levels reduced relative to animals treated with 0.1 μmol/kg ISIS 776102 (FoxO1 protein [4]; [8]): 36%

ION 962963 (H[Aib]EGTFTSDVSSYLEEQAAKEFIAWLVKGGPSSGAPPPSC([Mpa-5'‑hexylamino oligonucleotide ISIS 722061])-NH2; reading uncertain; also: Cys40 joined to the linker by a disulfide)
dose-dependent inhibition of MALAT-1 (MALAT-1; GLP1R HEK cells, GLP-1 complexed ASOs with or without a TCA linker versus parent): increased dose-dependent inhibition | IC50 (MALAT-1; approximately 24 hours, read-out: IC50 (MALAT-1 expression in GLP1R HEK cells)): 0.35 µM | MALAT1 expression in beta islet cells compared to saline control (in situ hybridization) (MALAT1 [5]): reduced

ION 1083569 (HSEGTFTSDVSSYLEGQAAKEFIAWLVKGRX; C-terminal Z = 4-azidonorleucine, joined by a click reaction to the 5'-BCN MALAT1 oligonucleotide ION 791173; C-terminal amide)
IC50 (MALAT1 [6]): 2.02 µM
